# From ChEMBL document CHEMBL6153138, “Discovery of Novel Aromatic Urea-Imidazole Salt Derivatives for Cancer Therapy via Targeting ERK1/2” (J Med Chem, 2025)
# Tests used:
# HCC1937 = test: Antiproliferative activity against human HCC1937 cells incubated for 48 hrs by CCK-8 method; assay type: functional, cell-based; details: HCC1937, 48 h
# MCF7 = test: Antiproliferative activity against human MCF7 cells incubated for 48 hrs by CCK-8 method; assay type: functional, cell-based; details: MCF7, 48 h
# [1] = target: Mitogen-activated protein kinase 1 (Homo sapiens, UniProt P28482); test: Inhibition of ERK2 (unknown origin) incubated for 60 mins by luminescence based ADP-Glo kinase assay
# Chain of Mitogen-activated protein kinase 1 (P28482 whole entry): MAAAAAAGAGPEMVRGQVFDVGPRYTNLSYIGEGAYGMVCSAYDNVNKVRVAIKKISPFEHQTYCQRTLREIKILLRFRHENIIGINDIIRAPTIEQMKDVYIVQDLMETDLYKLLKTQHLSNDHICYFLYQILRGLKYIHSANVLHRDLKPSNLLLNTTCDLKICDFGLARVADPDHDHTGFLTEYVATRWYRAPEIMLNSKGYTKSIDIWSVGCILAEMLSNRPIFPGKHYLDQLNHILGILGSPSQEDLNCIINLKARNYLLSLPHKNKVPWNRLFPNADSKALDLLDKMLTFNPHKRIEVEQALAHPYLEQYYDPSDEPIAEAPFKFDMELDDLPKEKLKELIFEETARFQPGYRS
# 4T1 = test: Antiproliferative activity against mouse 4T1 cells incubated for 48 hrs by CCK-8 method; assay type: functional, cell-based; details: 4T1, 48 h
# MCF-10A = test: Antiproliferative activity against human MCF-10A cells incubated for 48 hrs by CCK-8 method; assay type: functional, cell-based
# MDA-MB-468 = test: Antiproliferative activity against human MDA-MB-468 cells incubated for 48 hrs by CCK-8 method; assay type: functional, cell-based; details: MDA-MB-468, 48 h
SMILES,IC50 (HCC1937),IC50 (MCF7),IC50 [1],IC50 (4T1),IC50 (MCF-10A),IC50 (MDA-MB-468)
C=CC[n+]1cn(C[C@H](Cc2ccccc2)NC(=O)Nc2cc(C(F)(F)F)cc(C(F)(F)F)c2)c2ccccc21,> 10000 nM,> 10000 nM,> 10000 nM,> 10000 nM,> 10000 nM,> 10000 nM
CC[n+]1cn(C[C@H](Cc2ccccc2)NC(=O)Nc2cc(C(F)(F)F)cc(C(F)(F)F)c2)c2ccccc21,> 10000 nM,> 10000 nM,> 10000 nM,> 10000 nM,> 10000 nM,> 10000 nM
O=C(Nc1cc(C(F)(F)F)cc(C(F)(F)F)c1)N[C@@H](Cc1ccccc1)Cn1c[n+](Cc2ccc(Br)cc2)c2ccccc21,1820 nM,2190 nM,338 nM,6770 nM,> 10000 nM,2220 nM
Cc1cccc(C[n+]2cn(C[C@H](Cc3ccccc3)NC(=O)Nc3cc(C(F)(F)F)cc(C(F)(F)F)c3)c3ccccc32)c1,3720 nM,1700 nM,275 nM,6780 nM,> 10000 nM,2360 nM
O=C(Nc1cc(C(F)(F)F)cc(C(F)(F)F)c1)N[C@@H](Cc1ccccc1)Cn1c[n+](Cc2ccccc2F)c2ccccc21,1770 nM,2090 nM,217 nM,3130 nM,8380 nM,1820 nM
O=C(Nc1cc(C(F)(F)F)cc(C(F)(F)F)c1)N[C@@H](Cc1ccccc1)Cn1c[n+](C/C=C/c2ccccc2)c2ccccc21,2410 nM,1530 nM,237 nM,5630 nM,> 10000 nM,2440 nM
O=C(Nc1cc(C(F)(F)F)cc(C(F)(F)F)c1)N[C@@H](Cc1ccccc1)Cn1c[n+](Cc2ccc(Cl)cc2)c2ccccc21,4530 nM,1910 nM,319 nM,4590 nM,9780 nM,1810 nM
O=C(Nc1cc(C(F)(F)F)cc(C(F)(F)F)c1)N[C@@H](Cc1ccccc1)Cn1c[n+](Cc2cc(Cl)ccc2Cl)c2ccccc21,2050 nM,3250 nM,193 nM,6780 nM,> 10000 nM,2620 nM
Cc1cc(C)cc(NC(=O)N[C@@H](Cc2ccccc2)Cn2c[n+](Cc3ccc4ccccc4c3)c3ccccc32)c1,5980 nM,2700 nM,327 nM,7820 nM,> 10000 nM,3250 nM
O=C(Nc1cc(C(F)(F)F)cc(C(F)(F)F)c1)N[C@@H](Cc1ccccc1)Cn1c[n+](Cc2cccc(Br)c2)c2ccccc21,1690 nM,1800 nM,170 nM,2310 nM,8960 nM,1580 nM
O=C(Nc1cc(C(F)(F)F)cc(C(F)(F)F)c1)N[C@@H](Cc1ccccc1)Cn1c[n+](Cc2cccc(Cl)c2)c2ccccc21,3400 nM,2340 nM,166 nM,3680 nM,> 10000 nM,2120 nM
O=C(Nc1cc(C(F)(F)F)cc(C(F)(F)F)c1)N[C@@H](Cc1ccccc1)Cn1c[n+](Cc2ccccc2C(F)(F)F)c2ccccc21,2960 nM,1720 nM,252 nM,4970 nM,7680 nM,1880 nM
O=C(Nc1cc(C(F)(F)F)cc(C(F)(F)F)c1)N[C@@H](Cc1ccccc1)Cn1c[n+](Cc2cccc(OCc3ccccc3)c2)c2ccccc21,3180 nM,3200 nM,280 nM,6890 nM,> 10000 nM,1640 nM
O=C(Nc1ccc(Br)cc1)N[C@@H](Cc1ccccc1)Cn1c[n+](Cc2ccc3ccccc3c2)c2ccccc21,6560 nM,2780 nM,277 nM,6370 nM,> 10000 nM,3050 nM
O=C(Nc1cc(C(F)(F)F)cc(C(F)(F)F)c1)N[C@@H](Cc1ccccc1)Cn1c[n+](Cc2ccc(C(F)(F)F)cc2)c2ccccc21,2680 nM,1610 nM,223 nM,5630 nM,8120 nM,2500 nM
